The test system of assay [1] is human umbilical vein endothelial cells (HUVEC). Nature of the assay: Inhibition of proliferation of vascular endothelial cells (MTT analysis). The assay is classed as cell-based. As to conditions: VEGF 20 ng/ml, 1% serum, 3 days, MTT absorbance 560 nm, FIGS. 1 and 2. As for the experimental part: In order to confirm an effect of inhibiting the proliferation of vascular endothelial cells, the peptides prepared in Preparation Example 1 were treated to vascular endothelial cells, respectively, and then MTT analysis was performed.
Specifically, human umbilical vein endothelial cells (HUVEC) were inoculated in a 96-well plate at a density of 4×10^3 cells/well and then incubated overnight. Thereafter, after the medium was changed to a medium added with 1% serum, a VEGF (20 ng/ml) and the peptide of the present invention were treated for each concentration, respectively, and incubated for 3 days. However, 2 μm of sunitinib was used as a positive control group.
In addition, in order to confirm the effect of inhibiting the proliferation, 4 mg/ml of a thiozolyl blue tetrazolium bromide (MTT) solution was added to each well, formazan generated after reaction for 4 hours was dissolved by DMSO treatment, and then the absorbance was measured at a wavelength of 560 nm using a microplate reader. However, the measured absorbance values were shown by calculating relative rates based on an untreated control group.

For a further assay, the system named is HUVEC cells. Nature of the assay: Inhibition of differentiation of vascular endothelial cells (tube formation assay). In kind it is cell-based, human. The conditions noted are these: VEGF 20 ng/ml, serum-free, 1 day, FIGS. 3 and 4. The procedure: In order to confirm the effect of inhibiting the differentiation of vascular endothelial cells, the two peptides prepared in Preparation Example 1 were treated to the vascular endothelial cells, respectively, and then a tube formation assay was performed.
Specifically, HUVEC cells were inoculated in a 96-well plate at a density of 1.5×10^3 cells/well and incubated overnight, and then the medium was replaced with serum-free media, and then a VEGF (20 ng/ml) and the peptide of the present invention were treated by concentration and incubated for 1 day. However, 2 μm of sunitinib was used as a positive control group. After the incubation was completed, the measurement of tube formation was visually observed using an optical microscope, and the number of nodules was measured together.

The subject of another assay is VEGF receptor (VEGFR2). Nature of the assay: Inhibition of cell signaling pathway induced by VEGF: phosphorylation of VEGFR2. The assay is classed as cell-based. The conditions noted are these: vascular endothelial cells; FIGS. 5 and 6. The procedure:
(§1) Further, in order to confirm the effect of inhibiting a cell signaling pathway induced by the VEGFs by the peptides of the present invention, in a specific exemplary embodiment of the present invention, a peptide having an amino acid sequence of SEQ ID NO: 1 or SEQ ID NO: 2 was treated to vascular endothelial cells and then changes in phosphorylation of a VEGF receptor (VEGFR2), ERK, AKT and p38 induced by the VEGF were confirmed.

A further assay deals with ERK. Nature of the assay: Inhibition of cell signaling pathway induced by VEGF: phosphorylation of ERK. In kind it is cell-based. The conditions noted are these: vascular endothelial cells; FIGS. 5 and 6. As for the experimental part: as §1
The test system of a further assay is AKT. Nature of the assay: Inhibition of cell signaling pathway induced by VEGF: phosphorylation of AKT. The conditions noted are these: vascular endothelial cells; FIGS. 5 and 6. The assay is classed as cell-based. The procedure: as §1
In the next assay the test system is p38. Nature of the assay: Inhibition of cell signaling pathway induced by VEGF: phosphorylation of p38. The assay is classed as cell-based. The conditions noted are these: vascular endothelial cells; FIGS. 5 and 6. As for the experimental part:
as §1

For another assay, the system named is eNOS. Nature of the assay: Expression level of vascular endothelial cell migration marker eNOS. In kind it is cell-based. The conditions noted are these: vascular endothelial cells; FIGS. 7 and 8. The text has this: In addition, in order to confirm an effect of inhibiting the migration the vascular endothelial cells by the peptides of the present invention, in a specific exemplary embodiment of the present invention, a change in expression level of a vascular endothelial cell migration marker ‘eNOS’ was confirmed depending on treatment of the peptide having the amino acid sequence of SEQ ID NO: 1 or SEQ ID NO: 2 to the vascular endothelial cells.

The test system of another assay is BAX protein. Nature of the assay: Expression level of pro-apoptotic BAX protein. In kind it is cell-based. As to conditions: vascular endothelial cells, expression reduced by the VEGF; FIGS. 9 and 10.
In the next assay the target is VEGFR2 (Homo sapiens, UniProt P35968). Nature of the assay: Competitive binding to the VEGF receptor. As to conditions: FIGS. 11 to 14.
VEGFR2, sequence (P35968 20-1356, species assumed): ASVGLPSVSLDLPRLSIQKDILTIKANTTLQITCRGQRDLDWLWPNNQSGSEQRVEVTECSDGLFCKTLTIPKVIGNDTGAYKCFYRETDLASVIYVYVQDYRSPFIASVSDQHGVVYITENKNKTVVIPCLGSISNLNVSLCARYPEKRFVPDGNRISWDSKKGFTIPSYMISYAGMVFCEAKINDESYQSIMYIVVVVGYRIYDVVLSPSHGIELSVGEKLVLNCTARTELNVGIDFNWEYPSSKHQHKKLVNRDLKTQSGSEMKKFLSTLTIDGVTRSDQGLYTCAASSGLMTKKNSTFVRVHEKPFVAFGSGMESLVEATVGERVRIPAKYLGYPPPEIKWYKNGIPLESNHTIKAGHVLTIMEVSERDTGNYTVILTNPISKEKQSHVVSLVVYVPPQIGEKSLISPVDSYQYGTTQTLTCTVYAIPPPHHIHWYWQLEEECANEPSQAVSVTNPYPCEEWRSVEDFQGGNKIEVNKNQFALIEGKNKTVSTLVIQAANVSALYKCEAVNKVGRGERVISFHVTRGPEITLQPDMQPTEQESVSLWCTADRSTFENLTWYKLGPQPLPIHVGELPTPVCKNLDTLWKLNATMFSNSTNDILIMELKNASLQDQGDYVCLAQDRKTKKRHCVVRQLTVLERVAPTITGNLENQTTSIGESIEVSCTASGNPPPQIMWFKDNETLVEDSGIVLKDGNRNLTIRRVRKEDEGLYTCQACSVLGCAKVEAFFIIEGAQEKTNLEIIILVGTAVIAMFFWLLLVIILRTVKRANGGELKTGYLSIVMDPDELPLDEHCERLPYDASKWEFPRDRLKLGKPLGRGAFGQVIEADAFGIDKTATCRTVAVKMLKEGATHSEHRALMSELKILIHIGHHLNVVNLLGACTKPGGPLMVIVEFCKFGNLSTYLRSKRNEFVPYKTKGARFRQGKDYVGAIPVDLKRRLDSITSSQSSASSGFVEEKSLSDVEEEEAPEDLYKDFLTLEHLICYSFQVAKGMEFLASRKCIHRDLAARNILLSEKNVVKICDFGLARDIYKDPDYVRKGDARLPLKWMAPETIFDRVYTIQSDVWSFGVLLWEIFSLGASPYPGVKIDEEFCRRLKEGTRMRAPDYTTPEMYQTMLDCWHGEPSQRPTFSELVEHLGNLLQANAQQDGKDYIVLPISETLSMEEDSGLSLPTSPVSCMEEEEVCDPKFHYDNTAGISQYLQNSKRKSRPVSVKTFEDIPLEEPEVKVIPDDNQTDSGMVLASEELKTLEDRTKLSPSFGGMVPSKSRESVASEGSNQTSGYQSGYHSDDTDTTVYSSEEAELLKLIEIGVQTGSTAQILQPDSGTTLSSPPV

The record followed here is US11072636B2, “Peptide for inhibiting angiogenesis and use thereof” (CAREGEN CO., LTD., priority 2017, dated 2021).

With IHGTYKELL (Peptide 2) [SEQ ID NO: 2], the “proliferation of vascular endothelial cells increased by the VEGF” value in assay [1] is listed as “reduced”. Further, the “differentiation (tube formation) of vascular endothelial cells” value in the assay with HUVEC cells was “reduced”. Moreover, in the assay on VEGF receptor (VEGFR2), the “phosphorylation of VEGFR2 induced by the VEGF” value is “significantly inhibited”. For the same sequence, the “phosphorylation of ERK induced by the VEGF” value in the assay on ERK was “significantly inhibited”. For the same sequence, the “phosphorylation of AKT induced by the VEGF” value with AKT is recorded as “significantly inhibited”. The “phosphorylation of p38 induced by the VEGF” value with p38 is “significantly inhibited”. The “eNOS expression increased by VEGF treatment” value in the assay with eNOS is “decrease concentration-dependently”. Further, the “expression of the BAX protein” value in the assay with BAX protein is given as “increased concentration-dependently”. For the same sequence, the “binding to the VEGF receptor in competition with the VEGF” value with VEGFR2 is listed as “bind to a VEGFR2 competitively with the VEGF”.
On to NKNFGYDLYR (Peptide 1) [SEQ ID NO: 1], for which, in [1], the “proliferation of vascular endothelial cells increased by the VEGF” value is “reduced”. Moreover, in the assay with HUVEC cells, the “differentiation (tube formation) of vascular endothelial cells” value is reported as “reduced”. In addition, in the assay with VEGF receptor (VEGFR2), the “phosphorylation of VEGFR2 induced by the VEGF” value is on record as “significantly inhibited”. In addition, the “phosphorylation of ERK induced by the VEGF” value in the assay with ERK was “significantly inhibited”. Further, the “phosphorylation of AKT induced by the VEGF” value in the assay with AKT is “significantly inhibited”. Also, the “phosphorylation of p38 induced by the VEGF” value in the assay on p38 is “significantly inhibited”. The “eNOS expression increased by VEGF treatment” value in the assay with eNOS is given as “decrease concentration-dependently”. The “expression of the BAX protein” value in the assay on BAX protein is given as “increased concentration-dependently”. In addition, in the assay with VEGFR2, the “binding to the VEGF receptor in competition with the VEGF” value was “bind to a VEGFR2 competitively with the VEGF”.
